Literature values, collected in paper PMC4853309 (Protein expression and purification, 2015).

Molecular target: NprR
Conditions: read-out: estimated binding affinity (KD); cited from earlier work

Substance: SKPDIVG [NprX7]
- Kd: ~0.05 µM
